Laboratory results reported in PMC11273930, “Bioactive Bioxanthracene and Cyclodepsipeptides from the Entomopathogenic Fungus Blackwellomyces roseostromatus BCC56290” (Antibiotics, 2024).
In brackets after ≈: the same amount, converted by molar mass. Several values for one entry are separate records, joined by “and”; a condition that tells them apart may be missing. Identical values can stand only once. Like-named read-outs stand apart in the source and are kept apart here. Where a SMILES comes first, the peptide text is derived from it. [ ]: non-standard residue; d: D form. PhLac = O=C(O)[C@@H](O)Cc1ccccc1; NMeA = CN[C@@H](C)C(=O)O

Key:
[1] = tested on: KB3.1 (cervix) endocervical adenocarcinoma; type: cell-based, human
Experimental: (§1) In vitro cytotoxic activity of the isolated compounds was tested by applying the MTT (3-(4,5-dimethylthiayol-2-yl)-2,5-diphenyltetrazolium bromide) assay as previously reported. The mammalian cell lines used in the tests were sourced from DSMZ and included mouse fibroblasts (L929) and endocervical adenocarcinoma (KB3.1), human lung carcinoma (A549), breast adenocarcinoma (MCF-7), human ovarian cancer (SKOV-3), prostate carcinoma (PC-3), and epidermoid carcinoma cells (A431).

[2] = tested on: Mucor hiemalis (DSM 2656); assay: Antimicrobial assay (MIC); type: cell-based; design: key to MIC (µg/mL): -: no inhibition observed
Experimental: (§2) The antimicrobial activity of the isolated secondary metabolites was determined using our established protocol, against clinically relevant microorganisms obtained from the German Collection of Microorganisms and Cell Cultures (DSMZ, Braunschweig, Germany). These included Staphylococcus aureus (DSM 346), Bacillus subtilis (DSM 10), Acinetobacter baumanii (DSM 30008), Escherichia coli (DSM 1116), Chromobacterium violaceum (DSM 30191), Pseudomonas aeruginosa (PA14), Mycolicibacterium smegmatis (ATCC 700084), Candida albicans (DSM 1665), Mucor hiemalis (DSM 2656), Rhodotorula glutinis (DSM 10134), Schizosaccharomyces pombe (DSM 70572) and Pichia anomala (DSM 6766). Nystatin was used as an antifungal positive control whereas oxytetracycline, ciprofloxacin, gentamicin, and kanamycin were used as positive controls against Gram-positive and Gram-negative bacteria.

[3] = tested on: Pseudomonas aeruginosa (PA14); assay: Antimicrobial assay (MIC); type: cell-based; design: key to MIC (µg/mL): -: no inhibition observed
Experimental: as §2

[4] = tested on: Schizosaccharomyces pombe (DSM 70572); assay: Antimicrobial assay (MIC); type: cell-based; design: key to MIC (µg/mL): -: no inhibition observed
Experimental: as §2

[5] = tested on: Bacillus subtilis (DSM 10); assay: Antimicrobial assay (MIC); type: cell-based; design: key to MIC (µg/mL): -: no inhibition observed
Experimental: as §2

[6] = tested on: Mycobacterium smegmatis (ATCC 700084); assay: Antimicrobial assay (MIC); type: cell-based; design: key to MIC (µg/mL): -: no inhibition observed
Experimental: as §2

[7] = tested on: Chromobacterium violaceum (DSM 30191); assay: Antimicrobial assay (MIC); type: cell-based; design: key to MIC (µg/mL): -: no inhibition observed
Experimental: as §2

[8] = tested on: Pichia anomala (DSM 6766); assay: Antimicrobial assay (MIC); type: cell-based; design: key to MIC (µg/mL): -: no inhibition observed
Experimental: as §2

[9] = tested on: Staphylococcus aureus (DSM 346); assay: Antimicrobial assay (MIC); type: cell-based; design: key to MIC (µg/mL): -: no inhibition observed
Experimental: as §2

[10] = tested on: Rhodotorula glutinis (DSM 10134); assay: Antimicrobial assay (MIC); type: cell-based; design: key to MIC (µg/mL): -: no inhibition observed
Experimental: as §2

[11] = tested on: Escherichia coli (DSM 1116); assay: Antimicrobial assay (MIC); type: cell-based; design: key to MIC (µg/mL): -: no inhibition observed
Experimental: as §2

[12] = tested on: Candida albicans (DSM 1665); assay: Antimicrobial assay (MIC); type: cell-based; design: key to MIC (µg/mL): -: no inhibition observed
Experimental: as §2

[13] = tested on: Acinetobacter baumanii (DSM 30008); assay: Antimicrobial assay (MIC); type: cell-based; design: key: -: no inhibition observed
Experimental: as §2

[14] = tested on: L929 (murine) mouse fibroblasts; assay: Cytotoxicity (MTT) assay; type: cell-based
Experimental: as §1

Caenorhabditis elegans = assay: Nematicidal activity assay; type: in vivo; conditions: 18 h
Experimental: The nematicidal activity assay was conducted following a previously described procedure with slight modifications. C. elegans was cultured on nematode growth medium (NGM) containing 3 g NaCl, 20 g agar, 2.5 g peptone, 1 mL 1 M CaCl2, 25 mL of 1 M (pH 6.0) KPO4, 1 mL 1 M MgSO4, and 1 mL cholesterol (5 mg/mL in ethanol) per liter of medium. Plates were coated with Escherichia coli strain OP50, which served as the food source for nematodes. Synchronization of the nematode population was performed using a high egg density plate (~120 h). The plate was rinsed three times with 4 mL of 0.9% NaCl solution and then transferred to a 15 mL falcon tube. The nematode suspension was centrifuged at 1000 rpm for 3 min, and the supernatant was discarded. This procedure was repeated until a clear nematode suspension was obtained. After the last washing step, 2 mL of the suspension was mixed with 5 mL of bleaching solution (1 mL sodium hypochlorite solution, 0.5 mL 5 M NaOH, and 3.5 mL Milli-Q water). The solution was gently shaken for approximately 5 min to break down the nematode tissue, and monitored under the microscope. The reaction was stopped by adding 7 mL 0.9% NaCl solution when traces of adults were still visible. Subsequently, the suspension was centrifuged at 2500 rpm for 2 min and washed 3 times as previously described. After the final washing step, the supernatant was removed, and the volume was adjusted to 7 mL with 0.9% NaCl solution. The nematode egg suspension was incubated at 23 °C on a rotary shaker at 80 rpm for 18 h. The hatched nematodes were transferred to a fresh NGM plate supplemented with E.coli OP50. After 50–70 h, the J4 and adult C. elegans were washed from the plate as mentioned above. The nematode concentration was determined and diluted to approximately 1000 nematodes/mL.
Pure compounds were tested at concentrations of 10, 50, and 100 μg/mL in 48-well microtiter plates. The compounds, dissolved in MeOH, were added to the well plate and subsequently dried under nitrogen. After complete evaporation of the solvent, 300 μL of the nematode suspension (1000 nematodes/mL) was added to the compounds. Each treatment was replicated three times. MeOH was used as the negative control while 1 μg/mL Ivermectin served as the positive control. Nematodes were monitored 15 min after inoculation, and the plates were incubated at 24 °C and 150 rpm for 18 h. After incubation, both alive and dead nematodes were counted in three replicates under a stereomicroscope, and the mortality rate was calculated. Erect and non-moving nematodes were considered dead. […] The observed percentage of dead nematodes was corrected by considering the natural mortality observed in the negative control, using the Schneider-Orelli formula [30].

[15] = MTT assay, KB3.1 (cervix), read-out: IC50
[16] = 10 µg/mL, J4 and adult C. elegans, 24 °C, corrected by Schneider-Orelli formula vs methanol control, mean ± SD (n ≥ 3), < 0: less active than negative control
[17] = 50 µg/mL, J4 and adult C. elegans, 24 °C, corrected by Schneider-Orelli formula vs methanol control, mean ± SD (n ≥ 3)
[18] = 100 µg/mL, J4 and adult C. elegans, 24 °C, corrected by Schneider-Orelli formula vs methanol control, mean ± SD (n ≥ 3)

Compound	IC50 [1, 15] [µM]	MIC (µg/mL) [2]	MIC (µg/mL) [3]	MIC (µg/mL) [4]	MIC (µg/mL) [5]	MIC (µg/mL) [6]	MIC (µg/mL) [7]	MIC (µg/mL) [8]	MIC (µg/mL) [9]	MIC (µg/mL) [10]	MIC (µg/mL) [11]	MIC (µg/mL) [12]	MIC (µg/mL) [13]	IC50 [14] [µM]	Corrected mortality rate (%) (Caenorhabditis elegans; [16])	Corrected mortality rate (%) (Caenorhabditis elegans; [17])	Corrected mortality rate (%) (Caenorhabditis elegans; [18])	other results
ES-242-9 [Compound 1]	29.2	-	-	-	-	-	-	-	-	-	-	-	-	> 35	33.4 ± 5.3	31.7 ± 7.1	51.1 ± 5.3% and 51.1%	
3S,4S-HMDA-L-Trp^1-L-Trp^2-L-Phe (lariat or depsi) [Compound 3, Beauveriolide U, previously undescribed cyclic tetradepsipeptide, HMDA-Trp-Trp-Phe, C42H49N5O5]	> 35	-	-	-	-	-	-	-	-	-	-	-	-	> 35	< 0	6.0 ± 1.5	32.1 ± 7.0%	
Ivermectin [reference compound]																		Corrected mortality rate (%) (Caenorhabditis elegans; 1 µg/mL, positive control, C. elegans, corrected mortality, mean ± SD): 87.4 ± 6.5%
NC[C@H]1O[C@H](O[C@H]2[C@H](O)[C@@H](O[C@H]3O[C@H](CO)[C@@H](O)[C@H](N)[C@H]3O)[C@H](N)C[C@@H]2N)[C@H](O)[C@@H](O)[C@@H]1O [Kanamycin, reference compound]																		MIC [6]: 0.1 µg/mL (≈ 0.206 µM)
C[C@@H]1[C@H](O)[C@@H](C)/C=C/C=C/CC/C=C/C=C/C=C/C=C/C(O[C@H]2O[C@H](C)[C@@H](O)[C@H](N)[C@@H]2O)CC2O[C@](O)(CC(O)C(O)CCC(O)CC(O)CC(O)CC(=O)O[C@H]1C)CC(O)C2C(=O)O (some centres unmarked) [Nystatin, reference compound]																		MIC [2]: 4.2 µg/mL (≈ 4.54 µM); MIC [4]: 2.1 µg/mL (≈ 2.27 µM); MIC [8]: 4.2 µg/mL (≈ 4.54 µM); MIC [10]: 1.0 µg/mL (≈ 1.08 µM); MIC [12]: 2.1 µg/mL (≈ 2.27 µM)
HMDA-Trp-Ala-Phe (lariat or depsi) [Compound 2, Beauveriolide T]	> 35	-	-	-	-	-	-	-	-	-	-	-	-	> 35	11.6 ± 6.4	33.1 ± 6.7	36.1 ± 7.3%	
CC(C)C[C@@H]1NC(=O)[C@H](Cc2ccccc2)OC(=O)[C@H](C)N(C)C(=O)[C@H](CC(C)C)NC(=O)[C@H](Cc2ccccc2)NC(=O)[C@H](C)N(C)C1=O [Compound 4, Cardinalisamide D] (cyclo([PhLac]L[NMeA]FL[NMeA]))		-	-	-	-	-	-	-	-	-	-	-	-	> 35	13.7 ± 5.2	14.2 ± 4.9	23.4 ± 7.4%	IC50 [1]: 36.2 µM
CNC(C)C1CCC(N)C(OC2C(N)CC(N)C(OC3OCC(C)(O)C(NC)C3O)C2O)O1 (centres unmarked) [Gentamycin, reference compound]																		MIC [3]: 0.42 µg/mL (≈ 0.879 µM); MIC ([7]; DSM30191): 1.7 µg/mL (≈ 3.56 µM); MIC ([9]; DSM346): 0.42 µg/mL (≈ 0.879 µM); MIC ([11]; DSM1116): 0.83 µg/mL (≈ 1.74 µM)
CN(C)[C@@H]1C(O)=C(C(N)=O)C(=O)[C@@]2(O)C(O)=C3C(=O)c4c(O)cccc4[C@@](C)(O)[C@H]3[C@H](O)[C@@H]12 [Oxytetracyclin, reference compound]																		MIC ([5]; DSM10): 16.6 µg/mL (≈ 36.1 µM)
